According to patent publication US9695155B2, “Herbicidal substituted pyrimidinyloxy benzene compounds” (E. I. DU PONT DE NEMOURS AND COMPANY, priority 2013, dated 2017):

How the values were obtained:
lambsquarters [1] = assay: Test C preemergence; format: in vivo, Chenopodium album; conditions: Chenopodium album, pre-emergence
How it was run: (§1)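 Visual injury score versus untreated controls, 0 = no effect, 100 = complete control, taken 13 to 15 days after treatment in the greenhouse. Pre-emergence pots held loam/sand; post-emergence plants grew in sphagnum peat/vermiculite mix and were sprayed at the 1- to 4-leaf stage.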

wheat, winter = assay: Test C preemergence; format: in vivo, Triticum aestivum; conditions: Triticum aestivum, pre-emergence
How it was run: as §1

rice = assay: Test B flooded paddy test; format: in vivo, Oryza sativa; conditions: Oryza sativa; Flood, 250 g ai/ha; 0 to 100 scale where 0 is no effect and 100 is complete control; read-out: Plant response rating, Rice
How it was run: (§2)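 2-leaf stage plants; pots flooded to 3 cm, compound added to paddy water, depth maintained. Greenhouse 13–15 d. Visual rating vs untreated controls, 0 (no effect) to 100 (complete control); dash = no result.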

soybean = assay: Test C postemergence; format: in vivo, Glycine max; conditions: Glycine max, post-emergence
How it was run: as §1

barnyardgrass = assay: Test C postemergence; format: in vivo, Echinochloa crus-galli; conditions: Echinochloa crus-galli, post-emergence
How it was run: as §1

blackgrass = assay: Test C postemergence; format: in vivo, Alopecurus myosuroides; conditions: Alopecurus myosuroides, post-emergence
How it was run: as §1

lambsquarters [2] = assay: Test C postemergence; format: in vivo, Chenopodium album; conditions: Chenopodium album, post-emergence
How it was run: as §1

kochia = assay: Test C postemergence; format: in vivo, Kochia scoparia; conditions: Bassia scoparia, post-emergence
How it was run: as §1

pigweed [3] = assay: Test C preemergence; format: in vivo, Amaranthus retroflexus; conditions: Amaranthus retroflexus, pre-emergence
How it was run: as §1

morningglory = assay: Test A postemergence; format: in vivo, Ipomoea spp.; conditions: Ipomoea, post-emergence, 240 h
How it was run: (§3)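 Visual 0–100 rating (100 = complete control) taken about 10 d post-treatment relative to untreated checks. Preemergence: directed soil spray on sown loam/sand pots. Postemergence: seedlings 2–10 cm, 1–2 leaf. Non-phytotoxic solvent formulation with surfactant.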

Italian ryegrass = assay: Test C postemergence; format: in vivo, Lolium multiflorum; conditions: Lolium multiflorum, post-emergence
How it was run: as §1

yellow nutsedge = assay: Test C preemergence; format: in vivo, Cyperus esculentus; conditions: Cyperus, pre-emergence
How it was run: as §1

corn = assay: Test A preemergence; format: in vivo, Zea mays; conditions: Zea mays, pre-emergence, 240 h
How it was run: as §3

Heteranthera limosa = assay: Test B flooded paddy test; format: in vivo; conditions: Heteranthera limosa, Flood, 250 g ai/ha; 0 to 100 scale where 0 is no effect and 100 is complete control; read-out: Plant response rating, Ducksalad
How it was run: as §2

pigweed [4] = assay: Test C postemergence; format: in vivo, Amaranthus retroflexus; conditions: Amaranthus retroflexus, post-emergence
How it was run: as §1

`N#Cc1cccc(Oc2ncc(Cl)cn2)c1-n1cc(C(F)(F)F)cn1` [Compound 58, 3-[(5-chloro-2-pyrimidinyl)oxy]-2-[4-(trifluoromethyl)-1H-pyrazol-1-yl]benzonitrile] was tested, and the pest or weed control at 62 g/ha (lambsquarters [1]; 62 g ai/ha, preemergence, scale 0 (no effect) to 100 (complete control), read-out: Lambsquarters plant response rating) was 100%, the pest or weed control at 125 g/ha (lambsquarters [1]; 125 g ai/ha, preemergence, scale 0 (no effect) to 100 (complete control), read-out: Lambsquarters plant response rating) was 100% and the pest or weed control at 250 g/ha (lambsquarters [1]; 250 g ai/ha, preemergence, scale 0 (no effect) to 100 (complete control), read-out: Lambsquarters plant response rating) was 100%. For the same compound, the pest or weed control at 31 g/ha (lambsquarters [1]; Preemergence, 31 g ai/ha, scale 0 to 100, 0 no effect, 100 complete control, read-out: Plant response rating, Lambsquarters) was 100%, the plant injury at 62 g/ha (wheat, winter; 62 g ai/ha, preemergence, scale 0 (no effect) to 100 (complete control), read-out: Wheat plant response rating) was 80% and the plant injury at 125 g/ha (wheat, winter; 125 g ai/ha, preemergence, scale 0 (no effect) to 100 (complete control), read-out: Wheat plant response rating) was 80%. The plant injury at 250 g/ha (wheat, winter; 250 g ai/ha, preemergence, scale 0 (no effect) to 100 (complete control), read-out: Wheat plant response rating) was 90%, the plant injury at 31 g/ha (wheat, winter; Preemergence, 31 g ai/ha, scale 0 to 100, 0 no effect, 100 complete control, read-out: Plant response rating, Wheat) was 45% and the plant injury at 250 g/ha (rice) was 50%. The Soybean plant response rating (crop injury, 0-100 scale) at 125 g/ha (soybean; 125 g ai/ha, postemergence, read-out: Plant response rating (0 to 100), Soybean) was 98%, the Soybean plant response rating (crop injury, 0-100 scale) at 250 g/ha (soybean; 250 g ai/ha, postemergence) was 98% and the Soybean plant response rating (crop injury, 0-100 scale) at 31 g/ha (soybean; Postemergence, 31 g ai/ha, scale 0 to 100 (0 no effect, 100 complete control), 13 to 15 days) was 95%. For the same compound, the Soybean plant response rating (crop injury, 0-100 scale) at 62 g/ha (soybean; Postemergence, 62 g ai/ha, scale 0 to 100 (0 no effect, 100 complete control)) was 95%, the pest or weed control at 125 g/ha (barnyardgrass; 125 g ai/ha, postemergence, read-out: Plant response rating (0 to 100), Barnyardgrass) was 15% and the pest or weed control at 250 g/ha (barnyardgrass; 250 g ai/ha, postemergence, read-out: Plant response rating (0 to 100), Barnyardgrass) was 75%. It also gave a pest or weed control at 31 g/ha (barnyardgrass; Postemergence, 31 g ai/ha, scale 0 to 100 (0 no effect, 100 complete control), 13 to 15 days, read-out: Plant response rating, Barnyardgrass) of 5%, a pest or weed control at 62 g/ha (barnyardgrass; Postemergence, 62 g ai/ha, scale 0 to 100 (0 no effect, 100 complete control), read-out: Plant response rating, Barnyardgrass) of 5% and a pest or weed control at 125 g/ha (blackgrass; 125 g ai/ha, postemergence, read-out: Plant response rating (0 to 100), Blackgrass) of 30%. For the same compound, the pest or weed control at 250 g/ha (blackgrass; 250 g ai/ha, postemergence, read-out: Plant response rating (0 to 100), Blackgrass) was 55%, the pest or weed control at 31 g/ha (blackgrass; Postemergence, 31 g ai/ha, scale 0 to 100 (0 no effect, 100 complete control), 13 to 15 days, read-out: Plant response rating, Blackgrass) was 10% and the pest or weed control at 62 g/ha (blackgrass; Postemergence, 62 g ai/ha, scale 0 to 100 (0 no effect, 100 complete control), read-out: Plant response rating, Blackgrass) was 15%. It also gave a pest or weed control at 125 g/ha (lambsquarters [2]; 125 g ai/ha, postemergence, read-out: Plant response rating (0 to 100), Lambsquarters) of 98%, a pest or weed control at 250 g/ha (lambsquarters [2]; 250 g ai/ha, postemergence, read-out: Plant response rating (0 to 100), Lambsquarters) of 98% and a pest or weed control at 31 g/ha (lambsquarters [2]; Postemergence, 31 g ai/ha, scale 0 to 100 (0 no effect, 100 complete control), 13 to 15 days, read-out: Plant response rating, Lambsquarters) of 75%. For the same compound, the pest or weed control at 62 g/ha (lambsquarters [2]; Postemergence, 62 g ai/ha, scale 0 to 100 (0 no effect, 100 complete control), read-out: Plant response rating, Lambsquarters) was 90%, the pest or weed control at 125 g/ha (kochia; 125 g ai/ha, postemergence, read-out: Plant response rating (0 to 100), Kochia) was 100% and the pest or weed control at 250 g/ha (kochia; 250 g ai/ha, postemergence, read-out: Plant response rating (0 to 100), Kochia) was 100%. For the same compound, the pest or weed control at 31 g/ha (kochia; Postemergence, 31 g ai/ha, scale 0 to 100 (0 no effect, 100 complete control), 13 to 15 days, read-out: Plant response rating, Kochia) was 95%, the pest or weed control at 62 g/ha (kochia; Postemergence, 62 g ai/ha, scale 0 to 100 (0 no effect, 100 complete control), read-out: Plant response rating, Kochia) was 95% and the pest or weed control at 62 g/ha (pigweed [3]; 62 g ai/ha, preemergence, scale 0 (no effect) to 100 (complete control), read-out: Pigweed plant response rating) was 100%. For the same compound, the pest or weed control at 125 g/ha (pigweed [3]; 125 g ai/ha, preemergence, scale 0 (no effect) to 100 (complete control), read-out: Pigweed plant response rating) was 100%, the pest or weed control at 250 g/ha (pigweed [3]; 250 g ai/ha, preemergence, scale 0 (no effect) to 100 (complete control), read-out: Pigweed plant response rating) was 100% and the pest or weed control at 31 g/ha (pigweed [3]; Preemergence, 31 g ai/ha, scale 0 to 100, 0 no effect, 100 complete control, read-out: Plant response rating, Pigweed) was 100%. It also gave a pest or weed control at 125 g/ha (morningglory; 125 g ai/ha, 0 to 100 scale where 0 is no effect and 100 is complete control, read-out: Plant response rating, Morningglory) of 100%, a pest or weed control at 500 g/ha (morningglory; 500 g ai/ha, 0 to 100 scale, 0 no effect, 100 complete control, read-out: Plant response rating Morningglory) of 100% and a pest or weed control at 125 g/ha (Italian ryegrass; 125 g ai/ha, postemergence, read-out: Plant response rating (0 to 100), Ryegrass, Italian) of 10%. For the same compound, the pest or weed control at 250 g/ha (Italian ryegrass; 250 g ai/ha, postemergence, read-out: Plant response rating (0 to 100), Ryegrass, Italian) was 35%, the pest or weed control at 31 g/ha (Italian ryegrass; Postemergence, 31 g ai/ha, scale 0 to 100 (0 no effect, 100 complete control), 13 to 15 days, read-out: Plant response rating, Ryegrass, Italian) was 5% and the pest or weed control at 62 g/ha (Italian ryegrass; Postemergence, 62 g ai/ha, scale 0 to 100 (0 no effect, 100 complete control), read-out: Plant response rating, Ryegrass, Italian) was 5%. For the same compound, the pest or weed control at 62 g/ha (yellow nutsedge; 62 g ai/ha, preemergence, scale 0 (no effect) to 100 (complete control), read-out: Nutsedge, Yellow plant response rating) was 85%, the pest or weed control at 125 g/ha (yellow nutsedge; 125 g ai/ha, preemergence, scale 0 (no effect) to 100 (complete control), read-out: Nutsedge, Yellow plant response rating) was 90% and the pest or weed control at 250 g/ha (yellow nutsedge; 250 g ai/ha, preemergence, scale 0 (no effect) to 100 (complete control), read-out: Nutsedge, Yellow plant response rating) was 95%. It also gave a pest or weed control at 31 g/ha (yellow nutsedge; Preemergence, 31 g ai/ha, scale 0 to 100, 0 no effect, 100 complete control, read-out: Plant response rating, Nutsedge, Yellow) of 70%, a Corn plant response rating (crop injury, 0 = no effect, 100 = complete kill) at 125 g/ha (corn; 125 g ai/ha, 0 to 100 scale where 0 is no effect and 100 is complete control) of 40% and a plant injury at 500 g/ha (corn; 500 g ai/ha, 0 to 100 scale, 0 no effect, 100 complete control, approx. 10 days, read-out: Corn plant response rating) of 70%. For the same compound, the pest or weed control at 250 g/ha (Heteranthera limosa) was 90%, the pest or weed control at 125 g/ha (pigweed [4]; 125 g ai/ha, postemergence, read-out: Plant response rating (0 to 100), Pigweed) was 98% and the pest or weed control at 250 g/ha (pigweed [4]; 250 g ai/ha, postemergence, read-out: Plant response rating (0 to 100), Pigweed) was 100%. For the same compound, the pest or weed control at 31 g/ha (pigweed [4]; Postemergence, 31 g ai/ha, scale 0 to 100 (0 no effect, 100 complete control), 13 to 15 days, read-out: Plant response rating, Pigweed) was 90% and the pest or weed control at 62 g/ha (pigweed [4]; Postemergence, 62 g ai/ha, scale 0 to 100 (0 no effect, 100 complete control), read-out: Plant response rating, Pigweed) was 95%.
